Tests used:
[1] = test system: site of sclerotomy in rabbit eyes after glaucoma filtration surgery; type: in vivo; conditions: for DAPI nuclear staining of conjunctival epithelium at site of sclerostomy: rabbit, in vivo
Experimental: (§1) Briefly, a rabbit model of glaucoma filtration surgery (GFS) was used. Rabbits underwent GFS received Balanced Salt Solution (BSS) or SAHA (50 μM) or mitomycin C (MMC; 0.04% (w/v)). Clinical scores of intraocular pressure (TOP), bleb vascularity and slit lamp examination were performed. On postoperative day 14, rabbits were sacrificed and the bleb tissues were collected for evaluation of tissue fibrosis with H&E, Masson trichrome (MT), α-smooth muscle actin (α-SMA), and F-actin staining. Further, SAHA-mediated acetylation of histones in corneal fibroblasts and conjunctiva were determined by western blot analysis.
On postoperative day 14, rabbits were humanely euthanized with pentobarbital (150 mg/kg) under general anesthesia. The eyes were enucleated together with the conjunctiva to preserve the bleb and snap frozen in optimal cutting temperature fluid. The tissues were sectioned and stained with hematoxylin and eosin. Masson's trichrome staining was performed to stain collagen. Immunofluorescence staining for f-actin (a marker for activated fibroblasts and myofibroblasts) was performed using Alexa Fluor® 594-conjugated phalloidin (1:40 dilution, A12381, Invitrogen Inc., Carlsbad, Calif.). Immunofluorescence staining for α-smooth muscle actin (αSMA), a marker for myofibroblasts, was performed with mouse monoclonal primary αSMA antibody (1:100 dilution, M0851; Dako, Carpinteria, Calif.). Tissue sections were incubated with 2% bovine serum albumin for 30 minutes at room temperature and then with αSMA monoclonal antibody for 90 minutes. For detection of the primary antibody, the sections were exposed to Alexa 488 goat anti-mouse IgG secondary antibody (1:500 dilution, A11001; Invitrogen Inc.) for 1 hour. The tissue sections at the site of sclerotomy and the sections on every sixth tissue slide on the either side of the sclerotomy were stained for f-actin and αSMA. After completion of immunostaining, tissue sections were mounted in medium containing DAPI (Vectashield; Vector Laboratories, Inc. Burlingame, Calif.), viewed, and photographed under a fluorescence microscope (Leica, Deerfield, Ill.) equipped with a digital camera system (SpotCam RT KE; Diagnostic Instruments, Sterling, Mich.). The stained areas in the imaged slides were quantified using Image J software.
(§2) The results are expressed as mean±SEM. The data for bleb length, area, vascularity and IOP were analyzed by two way ANOVA and Bonferroni test using GraphPad Prism 6.0 (GraphPad Software, Inc., La Jolla, Calif.) and p<0.05 was considered to be statistical significant. The immunostaining data was analyzed using a t-test.

[2] = test system: rabbit model of glaucoma filtration surgery; test: Rabbit model of glaucoma filtration surgery (GFS): clinical evaluation of bleb, vascularity, IOP and tolerability; type: in vivo; conditions: for bleb appearance (biomicroscopy): day 3, 7, 14 after GFS, compared to flat and scarred blebs in no treatment control; for bleb area compared to untreated controls / bleb length compared to untreated controls: day 3, 7 and 14 after GFS; for bleb area compared to untreated controls: SAHA p<0.05, MMC p<0.01; for bleb length compared to untreated controls: p<0.001; for bleb vascularity score / intraocular pressure: day 7 and day 14 after GFS; for bleb vascularity score: versus no treatment control; for intraocular pressure: versus no-treatment control
Experimental: as §1
A 10 mM stock solution of SAHA (Cayman Chemical Company, Ann Arbor, Mich., USA) was prepared by dissolving in dimethyl sulfoxide (DMSO) and then further diluted to 50 μM with balanced salt solution (BSS) eye drops (Alcon). For vehicle control, the same volume of DMSO was diluted with BSS. The 0.04% MMC stock solution was prepared in BSS and 0.02% final dose of MMC was given to rabbits. The rabbits were divided into three treatment groups. Groups I rabbits received 100 μl subconjunctival injection of vehicle 30 minutes before the GFS surgery and group II rabbits received 100 μl subconjunctival injection of 50 μM SAHA solution 30 minutes before GFS. Group III rabbits were injected with 100 μl subconjunctival solution of 0.02% MMC 30 minutes before surgery.
Clinical evaluation was performed to check the intraocular pressure (TOP), general appearance and vascularity of the bleb. All these clinical parameters were recorded before the surgery to obtain the baseline values and on days 3, 5, 7, 10 and 14 after surgery. To measure TOP, tonometry was performed using an applanation tonometer (Tono-pen) with animals under topical anesthesia. Bleb's size was graded by measuring its width and length. Bleb vascularity was graded as 0=avascular; 1=normal vascularity; 2=hyperemic; 3=very hyperemic. Anterior chamber inflammation was assessed by slit lamp examination and graded 0=no inflammation; 1=cells present; 2=fibrin formation; 3=hypopyon present.
as §2

[3] = test system: corneal haze in rabbits produced with −9.0 diopter PRK; test: Corneal haze after −9.0 diopter PRK in rabbits: efficacy (slit-lamp haze score, αSMA immunofluorescence); type: in vivo, rabbit; conditions: for Haze score: at 4-months after PRK, Fantes scale, single topical SAHA 25 μM 5 min or MMC 0.02% 1 min, BSS 2.7±0.4; for post-PRK corneal haze compared to no-drug treated corneas: single topical application, p<0.001
From the text: Photorefractive keratectomy was used to produce corneal haze in rabbits by performing −9.0 diopter ablation with the Summit Apex excimer laser (Model: SVS APEX Plus ER; Alcon, Ft. Worth, Tex.) as reported previously. Briefly, the rabbits were anesthetized and local anesthesia of the cornea was achieved through the application of topical ophthalmic 0.5% proparacaine hydrochloride (Alcon, Fort Worth, Tex.). A wire lid speculum was placed and corneal epithelium was removed by gentle scraping with surgical Beaver blade #64 (BD Biosciences, Franklin Lakes, N.J.). […] Only one eye of each animal was used for experimentation.
A 10 mM stock solution of SAHA (Cayman Chemical Company, Ann Arbor, Mich., USA) was prepared using dimethyl sulfoxide (DMSO), and diluted to 25 μM with balanced salt solution (BSS) eye drops (Alcon). For vehicle control, the same volume of DMSO was diluted with BSS. […] After PRK, rabbits were divided into 3 groups: Group-1 received a single topical application of SAHA (25 μM) for 5 minutes (n=15), Group-2 received a single topical application of MMC (0.02%) for 1 minute (n=15) and Group-3 received a single topical application of vehicle for 5 minutes (n=15). Thereafter, eyes were washed profusely with BSS. The contralateral eye served as naive control. All rabbits received clinical eye examination.
Rabbits from each group were euthanatized 3-days (n=3), 1-month (n=6), and 4-months (n=6) after PRK. Corneas were snap frozen, sectioned (7 mm), and stored at −80° C. Immunofluorescence was used to detect myofibroblast marker αSMA using monoclonal antibody (M0851; Dako, Calif.). […] Sections were viewed and photographed under a fluorescence microscope (Leica, Deerfield, Ill.) equipped with a digital camera system (SpotCam RT KE; Diagnostic Instruments, MI).

[4] = test system: human corneal endothelial cells; conditions: cited from earlier work
[5] = test system: rabbit corneal endothelial cells and keratocytes after −9D PRK; test: Rabbit PRK model: in vivo safety (specular microscopy, DAPI, TUNEL)
Experimental: Briefly, corneal haze in rabbits was produced with −9.0 diopter PRK. A single application of SAHA (25 μM) or MMC (0.02%) was applied topically immediately after PRK. Effects of the two drugs were analyzed by slit-lamp microscope, specular microscope, TUNEL assay, and immunofluorescence.
(§3) A 10 mM stock solution of SAHA (Cayman Chemical Company, Ann Arbor, Mich., USA) was prepared using dimethyl sulfoxide (DMSO), and diluted to 25 μM with balanced salt solution (BSS) eye drops (Alcon). For vehicle control, the same volume of DMSO was diluted with BSS. The 0.02% Mitomycin C solution was prepared at the Harry S. Truman VA Hospital Pharmacy, Columbia, Mo. using 5 mg/ml powder (Accord Healthcare, Inc., Durham, N.C., USA) diluted with sterile normal saline. This solution was stable for 1 week at room temperature but was used within 48 hours after preparation. After PRK, rabbits were divided into 3 groups: Group-1 received a single topical application of SAHA (25 μM) for 5 minutes (n=15), Group-2 received a single topical application of MMC (0.02%) for 1 minute (n=15) and Group-3 received a single topical application of vehicle for 5 minutes (n=15). Thereafter, eyes were washed profusely with BSS. The contralateral eye served as naive control. All rabbits received clinical eye examination.
Slit-lamp (SL15, Kowa, Japan), stereo (MZ16F, Leica, Switzerland) and specular (NSP-8800, Konan, Japan) microscopes were used to evaluate ocular health, corneal haze, and corneal endothelial cells in anesthetized animals. Grading of clinical corneal haze was done using Fantes scale by three researchers (AS, MW and SG) in a masked manner. High performance digital imaging system (VK2; Kowa Tokyo, Japan) was used for corneal image analysis.
Rabbits from each group were euthanatized 3-days (n=3), 1-month (n=6), and 4-months (n=6) after PRK. Corneas were snap frozen, sectioned ([…]), and stored at −80° C. Immunofluorescence was used to detect myofibroblast marker αSMA using monoclonal antibody (M0851; Dako, Calif.). TUNEL assay (ApopTag, 57165; Billerica, Mass.) detected apoptosis and DAPI-stained nuclei determined cellular density. Sections were viewed and photographed under a fluorescence microscope (Leica, Deerfield, Ill.) equipped with a digital camera system (SpotCam RT KE; Diagnostic Instruments, MI).
Stained proteins in corneal sections were quantified using Image J software in six randomly selected areas. Standard error means were calculated. One-way ANOVA and Wilcoxon rank sum test were used for statistical analysis. The p value <0.05 was considered significant.

[6] = Stability of 0.02% Mitomycin C solution; type: physicochemical; conditions: 0.02% solution in sterile normal saline, room temperature
Experimental: as §3

[7] = test system: acetylation of Histone H3 and H4 in rabbit conjunctiva tissue; test: Western blot of acetylated histones in rabbit conjunctiva after subconjunctival injection; type: in vivo; conditions: 100 μl subconjunctival 50 μM SAHA
Experimental: (§4) Rabbits were received 100 μl subconjunctival injection of 50 μM SAHA. Cell lysates were prepared from human corneal fibroblast cells treated with SAHA (2.5 μM) at 0, 2, 4, 6, 16 and 24 hours. Rabbit conjunctival tissues were harvested at 0, 2, 6 and 24 hour time points. Cell and tissue lysates were analyzed by western blotting using anti-acetyl Histone H3, anti-acetyl histone H4 (Cell Signaling, Beverly, Mass., USA) and (3-actin (Santa Cruz biotechnology Inc., Dallas, Tex., USA) antibodies respectively. All western blots for each protein were used 3 rabbit tissues and repeated at least two times. Digital quantification of western blots was performed using NIH Image J software and Image Studio software Version 5.2

[8] = in vivo; cited from earlier work
[9] = test system: acetylation of Histone H3 and H4 in human corneal fibroblast cells; test: Western blot of acetylated histones in human corneal fibroblast cells; type: cell-based; conditions: SAHA 2.5 μM
Experimental: as §4

[10] = test system: cultured rabbit, equine, canine and human corneal fibroblasts; conditions: previous studies from the lab; cited from earlier work
[11] = test system: cultured corneal fibroblasts; conditions: 50 μM or higher dose of SAHA; earlier studies; cited from earlier work
[12] = day 14 after GFS, versus no-treatment control
[13] = prophylactic MMC 0.02%, 10-50 seconds, nonrandomized controlled trial

CO[C@@]12[C@H](COC(N)=O)C3=C(C(=O)C(C)=C(N)C3=O)N1C[C@@H]1N[C@@H]12 [MMC, mitomycin C]
f-actin stained area (activated fibroblasts and myofibroblasts) [1, 12]: very robust decrease | αSMA stained area (myofibroblasts) [1, 12]: very robust decrease | DAPI nuclear staining of conjunctival epithelium at site of sclerostomy [1]: discontinuous and highly sparse DAPI nuclear staining | bleb appearance (biomicroscopy) [2]: elevated blebs but these blebs had a thin, avascular and cystic appearance | bleb area compared to untreated controls [2]: significantly higher | bleb length compared to untreated controls [2]: significantly higher | bleb vascularity score [2]: very robust decrease | intraocular pressure [2]: lower TOP compared to the no-treatment control eyes but the results were not statistically significant | bleb vascularity by day 14 ([2]; day 14 after GFS): completely avascular | ocular adverse findings on clinical evaluation ([2]; rabbit eyes after GFS, SAHA 50 μM or MMC 0.02% subconjunctival): corneal neovascularization and opacity | Haze score [3]: 0.85±0.15 | post-PRK corneal haze compared to no-drug treated corneas [3]: significantly decreased | qualitative morphometric parameters or quantitative endothelial cell density ([4]; 0.02% MMC topically for 12 seconds and 40 seconds following PRK, other studies): did not have a significant effect | corneal endothelial cells [4, 13]: significant loss of corneal endothelial cells | haze formation after PRK [4, 13]: inhibited haze formation | corneal endothelial cell phenotype and density ([5]; 1-month after PRK): significantly compromised endothelial cell phenotype and density | apoptosis (TUNEL+ cells in stroma and endothelium) ([5]; 1-month and 4-months): many TUNEL+ cells in the stroma and endothelium | keratocyte number and density in stroma (DAPI-staining) ([5]; 1-month and 4-months post-PRK): significant keratocyte loss | corneal endothelial cell phenotype and density ([5]; 4-months after PRK): still had compromised endothelial cells | apoptosis (TUNEL assay) ([5]; corneas collected at 3-days): significant apoptosis in epithelial and keratocyte cells | stability of solution [6]: 1 week

O=C(CCCCCCC(=O)Nc1ccccc1)NO [SAHA, suberoylanilide hydroxamic acid]
Masson trichrome staining: collagen deposits at site of sclerotomy [1, 12]: less collagen deposits | f-actin stained area (activated fibroblasts and myofibroblasts) [1, 12]: significant decrease | αSMA stained area (myofibroblasts) [1, 12]: significant decrease | H&E staining: fibrous deposit at site of sclerotomy ([1]; day 14 after GFS, control densely packed with fibrous tissue): mild fibrous deposit and a loosely arranged conjunctival tissue | DAPI nuclear staining of conjunctival epithelium at site of sclerostomy [1]: continuous and uniform conjunctival epithelium | bleb appearance (biomicroscopy) [2]: transparent and elevated blebs | bleb area compared to untreated controls [2]: significantly higher | bleb length compared to untreated controls [2]: significantly higher | bleb vascularity score [2]: significantly (p<0.01) attenuated | intraocular pressure [2]: lower TOP compared to the no-treatment control eyes but the results were not statistically significant | time of maximum histone H3 and H4 acetylation [7]: 6 h | acetylation status of histone H3 and H4 ([7]; 0, 2, 6 and 24 hour): increase the acetylation status of histone H3 and H4 | plasma half-life [8]: short | Haze score [3]: 0.9±0.1 | post-PRK corneal haze compared to no-drug treated corneas [3]: significantly decreased | time of maximum histone H3 and H4 acetylation [9]: 6 h | acetylation status of histone H3 and H4 ([9]; 0, 2, 4, 6, 16 and 24 hours): increase the acetylation status of histone H3 and H4 | differentiation of corneal fibroblasts to myofibroblasts [10]: capable of inhibiting differentiation | cellular viability of cultured corneal fibroblasts [11]: did not decrease cellular viability | apoptosis (TUNEL assay) ([5]; rabbit, in vivo): did not induce apoptosis in any cell type | keratocyte number and density in stroma (DAPI-staining) ([5]; rabbit, in vivo): did not reduce number or density of keratocytes

From patent publication US20200030263A1, “METHODS AND COMPOSITIONS FOR PROMOTING WOUND HEALING WITH DECREASED SCAR FORMATION AFTER GLAUCOMA FILTRATION SURGERY” (United States Government as Represented by the Department …, priority 2017, published 2020)
